Results published in publication PMC10848157, “Assessing NH300094, a novel dopamine and serotonin receptor modulator with cognitive enhancement property for treating schizophrenia” (Frontiers in Pharmacology, 2024).
Structures can show the parent of a compound that is named as a salt.

Legend:
[1] = target: 5-HT1B receptor (Homo sapiens, UniProt P28222); experiment: 5-HT1B receptor functional assay (cAMP assay, inverse agonist); assay type: cell-based; settings: inverse agonist activity, CHO-K1/5-HT1B cells, read-out: 5HT1BR, EC50
Chain of 5-HT1B receptor (P28222 whole entry): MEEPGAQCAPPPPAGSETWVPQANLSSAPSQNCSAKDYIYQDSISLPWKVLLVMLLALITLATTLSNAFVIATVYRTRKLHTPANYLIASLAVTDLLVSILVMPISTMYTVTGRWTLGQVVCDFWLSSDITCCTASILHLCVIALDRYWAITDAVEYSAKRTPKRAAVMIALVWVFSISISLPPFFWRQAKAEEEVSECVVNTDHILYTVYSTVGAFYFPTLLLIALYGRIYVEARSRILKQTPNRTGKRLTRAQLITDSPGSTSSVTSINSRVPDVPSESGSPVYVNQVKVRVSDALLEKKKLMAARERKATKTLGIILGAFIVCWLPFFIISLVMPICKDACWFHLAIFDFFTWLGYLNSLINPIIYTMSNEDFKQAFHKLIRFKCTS

[2] = target: T1, 5-HT2C receptor (Homo sapiens, UniProt P28335); experiment: 5-HT2C receptor functional assay (calcium flow, FLIPR); assay type: cell-based; settings: HEK293/5-HT2C cells, read-out: 5HT2cR, IC50
T1 sequence (P28335 33-458): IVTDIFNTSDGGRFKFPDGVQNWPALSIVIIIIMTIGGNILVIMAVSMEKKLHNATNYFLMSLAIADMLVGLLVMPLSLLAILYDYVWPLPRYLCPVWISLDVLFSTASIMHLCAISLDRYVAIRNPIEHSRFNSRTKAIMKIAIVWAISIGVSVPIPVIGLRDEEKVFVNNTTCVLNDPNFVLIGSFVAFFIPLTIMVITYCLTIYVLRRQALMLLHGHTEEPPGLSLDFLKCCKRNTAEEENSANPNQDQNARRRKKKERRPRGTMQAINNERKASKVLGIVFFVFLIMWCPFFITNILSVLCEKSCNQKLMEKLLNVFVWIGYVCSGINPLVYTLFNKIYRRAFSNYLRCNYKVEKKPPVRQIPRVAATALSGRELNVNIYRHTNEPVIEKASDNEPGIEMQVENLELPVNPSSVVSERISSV

[3] = system: male ICR mice; experiment: MK-801-induced hyperactivity in mice; assay type: in vivo; settings: single oral dose
Description: Immediately after injection with either saline or MK-801 (0.3 mg/kg, i.p.), the mice were placed into the test chambers (29 cm × 29 cm × 30 cm) for 60 min of locomotion recording using a tracking and computerized analysis system (TopScan Version 3.00, Clever Sys Inc., Leesburg, VA).

[4] = system: male Wistar rats; experiment: Conditioned avoidance response test in rats; assay type: in vivo; settings: Rattus norvegicus, single oral dose, read-out: ED50, inhibition of conditioned avoidance response
Text: Shuttle-box Avoidance Test Video Analysis System (DigBehv-SBG, Shanghai Jiliang Software Technology Co. Ltd.) were used to assess the rats conditioned avoidance response.
Phase I: The rats responded to the conditioned stimulus (auditory and visual) by training with foot shock reinforcement. Briefly, rats were placed into the CAR shuttle boxes for a 5-min habituation followed by 30 trials presented on a 20-s variable interval (20–30 s) stimulus. Each rats were subjected to a conditioned stimulus which consisted of 10s presentation of light and white noise, and then followed by a scrambled 1.5 mA foot shock for 10 s. […] Rats with avoidance rates greater than 70% for 3 consecutive days were included in this study post-training.
Phase II: The qualified rats were randomly divided into 7 groups. […] The procedure in the testing phase was the same as the Phase I described. The number of avoidances, escapes, and escape failures were recorded.

[5] = system: male ICR mice; experiment: APO-induced climbing in mice
[6] = system: male ICR mice; experiment: DOI-induced head twitch in mice
[7] = system: male ICR mice; experiment: Forced swimming test in mice; assay type: in vivo; settings: single oral dose; NH300094 0.03 mg/kg; risperidone 0.01, 0.03 and 0.1 mg/kg
Description: Each mouse was required to swim in an open cylindrical container (height of 25 cm, diameter of 10 cm) after intragastric administration of compounds 1 h. The container contained 1.2 L of water with temperature maintained at 24°C ± 1°C. The test used a computerized analysis and tracking system (Clever Sys Inc., Leesburg, VA) to recorded the duration of immobility (last 4 min of a total time of 6 min) about the testing mice.

[8] = system: male ICR mice; experiment: Novel object recognition in scopolamine hydrobromide-treated mice; assay type: in vivo; settings: NOR; NH300094 0.01–0.16 mg/kg p.o.; risperidone 0.04, 0.08, 0.16 mg/kg p.o.; rivastigmine 0.3 and 1 mg/kg i.p.
Description: The procedure was modified according to Bevins and Besheer ([Bevins and Besheer, 2006]). […] The tests were conducted in a 50 cm × 35 cm × 20 cm chamber and the mice behavior was recording using a Hikvision video recording system (H.265, Hikvision Digtial Technology Co., Ltd.). All mice were allowed to freely explore the chamber environment for 10 min, and there were no objects placed in the chamber during acclimatization period. […] Rivastigmine hydrogen tartrate group (0.1, 0.3 and 1 mg/kg, i.p.) were dosed simultaneously with scopolamine hydrobromide (3 mg/kg, i.p.). Training was conducted 30 min post scopolamine hydrobromide administration by placing a single mouse into a chamber for 10 min with two exactly same objects positioned in the center of chamber. (The distance between the two objects was more than 20 cm). […]
The experimental video was analyzed to record the time of mice exploring the new and old objects, respectively, and the differentiation index (DI) was calculated as follows: DI = new object exploration time/(new object exploration time + old object exploration time), which was used as the main evaluation index of discrimination ability. […] If the total exploration time of the new and old objects was less than 20 s, the total 10 min of video would be analyzed. […] The movement of circling without sniffing or sitting on the object was not recorded as exploration behavior.

[9] = single oral dose, male ICR mice

CSc1ccc2c(c1)C(N1CCN(C)CC1)Cc1ccccc1S2 (centres unmarked) [Methiothepin, reference compound]
EC50 [1]: 0.0223 ± 0.00969 µM
IC50 [2]: 0.0397 µM

Cc1nc2n(c(=O)c1CCN1CCC(c3noc4cc(F)ccc34)CC1)CCCC2 [Risperidone, risperidone, reference compound]
ED50 ([3]; Mus musculus, MK-801 0.3 mg/kg i.p., read-out: ED50, inhibition of MK-801-induced hyperactivity): ~0.08 mg/kg
Minimum effective dose (MED), MK-801-induced hyperactivity [3]: 0.1 mg/kg
ED50 [4]: ~0.7 mg/kg
ED50 ([5]; Mus musculus, read-out: ED50, inhibition of APO-induced climbing): ~0.1 mg/kg
MED, APO-induced climbing [5, 9]: 0.1 mg/kg
ED50 ([6]; Mus musculus, po, read-out: ED50, inhibition of DOI-induced head twitch, single oral dose, male ICR mice, DOI 1 mg/kg): ~0.002 mg/kg
MED, DOI-induced head twitch [6, 9]: 0.001 mg/kg
effect on immobility time in the FST [7]: did not affect the immobility time

CCN(C)C(=O)Oc1cccc([C@H](C)N(C)C)c1 [rivastigmine bitartrate, rivastigmine hydrogen tartrate, reference compound]
effect on differentiation index (DI) of scopolamine hydrobromide-treated mice [8]: significantly enhanced learning and memory ability
